Literature values, collected in patent US20140178456A1, “METHODS AND COMPOSITIONS FOR TREATING TYPE 2 DIABETES AND RELATED CONDITIONS” (priority 2012, published 2014).
Where a name gives a salt, the structure may show the parent alone.

peak plasma concentration (oral administration of 8 mg rosiglitazone maleate) | Compound | peak plasma concentration of pioglitazone and its active metabolites (oral administration of 30 mg pioglitazone)
– | CCc1ccc(CCOc2ccc(CC3SC(=O)NC3=O)cc2)nc1 (centres unmarked) [pioglitazone] | about 146 μg per liter
about 46114 per liter | CN(CCOc1ccc(CC2SC(=O)NC2=O)cc1)c1ccccn1 (centres unmarked) [rosiglitazone maleate] | –
